Test results as given in patent EP0726903B1, “MATRIX METALLOPROTEASE INHIBITORS” (SYNTEX (U.S.A.) INC., priority 1993, dated 1995).

Assays:
[1] = test system: bovine PTH induced bone resorption; test: In vitro fetal rat long bone model of bone resorption (45Ca release); format: cell-based; details: ^45Ca release from fetal rat long bones, Bovine PTH (1-34) at 1x10^-8M, Day 6
Excerpt: An in vitro fetal rat long bone model was used to study the anti-bone resorptive effect of the compounds of formula (I). Bovine PTH was used to induce bone resorption in vitro. The bone resorptive effects were expressed by the amounts of ^45Ca released from the ^45Ca pre-labelled fetal rat long bones into the culture medium. The inhibitory effect of the compounds of formula (I) against bovine PTH induced bone resorption was expressed as mean percent inhibition ± sem.
^45Ca-prelabelled fetal rat long bones (from forearms) were dissected and cultured in Linbro dishes at 37°C overnight BGJb medium, supplemented with lmg/ml BSA. There were five pairs of bones in each group. The compounds of formula (I) were dissolved in ethanol first, then diluted to various concentrations and added simultaneously with Bovine PTH (1-34) at […] on Day 1. […] The assay was terminated on Day 6 with one media change on Day 3.
At the end of each medium change, the ^45Ca present in the culture medium was counted. The remaining bones were digested with 0.1N HCl and the ^45Ca presented in the bone digest was also counted. The results are expressed as % of the total ^45Ca released from each pair of bones. Bovine PTH at 1x10^-8M induces bone resorption to the maximum level which is set as 100% and this concentration was used as standard. The level of base line bone resorption in the presence of medium only was set as 0%. All compound-treated groups were compared with bovine PTH (1-34) at 1x10^-8M.

[2] = test system: release of ^35S-labelled glycosaminoglycans (GAG's) from cartilage explants; test: Inhibition of release of 35S-labelled glycosaminoglycans from cartilage explants; format: cell-based; details: Bos taurus; bovine knee joint cartilage explants, release induced by rhIL-1-alpha
Procedure: This assay determines if the compounds of formula (I) inhibit the release of ^35S-labelled glycosaminoglycans (GAG's) from cartilage explants.
Small cartilage explants (3 mm diameter) were prepared from freshly sacrificed bovine knee joints and labeled with ^35SO4. ^35S-labelled glycosaminoglycans (GAG's) are released into the culture medium in response to the addition of rhIL-1-alpha, which induces the expression of chondrocyte matrix metalloproteases (MMP's), including stromelysin and collagenase. The percent inhibition of labeled GAG's was corrected for spontaneous release in the absence of rh1L-1-alpha. Results for each group represent the mean ± the S.E.M. for five explants.

STROM. = STROM. (Homo sapiens, UniProt P08254); test: In vitro enzyme inhibition assay (fluorescence, thiopeptide substrate), STROM.; format: biochemical
HFC = molecular target: T1, HFC (Homo sapiens, UniProt P03956); test: In vitro enzyme inhibition assay (fluorescence, thiopeptide substrate), HFC; format: biochemical
T1 sequence (P03956 100-469): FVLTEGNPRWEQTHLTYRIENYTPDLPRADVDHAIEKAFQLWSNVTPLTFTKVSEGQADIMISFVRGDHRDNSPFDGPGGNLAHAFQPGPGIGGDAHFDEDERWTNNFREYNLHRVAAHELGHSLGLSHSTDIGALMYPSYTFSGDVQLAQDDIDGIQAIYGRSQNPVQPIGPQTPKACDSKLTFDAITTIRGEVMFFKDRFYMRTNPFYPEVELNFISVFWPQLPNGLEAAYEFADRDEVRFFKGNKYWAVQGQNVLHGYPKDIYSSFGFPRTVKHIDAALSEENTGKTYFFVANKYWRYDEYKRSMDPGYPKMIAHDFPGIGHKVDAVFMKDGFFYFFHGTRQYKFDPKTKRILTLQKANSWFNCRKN

Chain of STROM. (P08254 100-477): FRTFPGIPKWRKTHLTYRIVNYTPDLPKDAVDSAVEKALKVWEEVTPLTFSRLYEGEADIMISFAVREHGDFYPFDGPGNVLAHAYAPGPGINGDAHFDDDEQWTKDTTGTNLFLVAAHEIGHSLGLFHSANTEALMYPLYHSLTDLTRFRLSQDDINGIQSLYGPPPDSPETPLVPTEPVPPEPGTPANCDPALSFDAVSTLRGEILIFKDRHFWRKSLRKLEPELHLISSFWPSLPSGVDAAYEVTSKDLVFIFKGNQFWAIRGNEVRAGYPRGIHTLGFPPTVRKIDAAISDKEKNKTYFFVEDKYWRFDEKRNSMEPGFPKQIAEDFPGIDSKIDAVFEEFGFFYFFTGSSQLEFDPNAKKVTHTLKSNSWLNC

Compound: COC(=O)c1ccc(NC(=O)[C@H](CCSC)NC(=O)C(CC(C)C)CP(=O)(O)CSc2ccc3ccccc3n2)cc1 (stereo partly drawn) [Compound 1, N-(2-(hydroxy)(quinolin-2-ylthiomethyl)phosphinoylmethyl-4-methylpentanoyl)-L-methionine-N'-(4-methoxycarbonylphenyl)carboxamide]
- IC50 [1]: ≥ 5000 nM

Compound: COC(=O)c1ccc(NC(=O)[C@H](CC(C)C)NC(=O)C(CC(=O)NO)CC(C)C)cc1 (stereo partly drawn) [Compound 2, N-(4-methyl-2-(N"-hydroxycarbamoyl)methylpentanoyl)-L-leucine-N'-(4-methoxycarbonylphenyl)carboxamide]
- EC50 [2]: 3500 nM
- IC50 (STROM.): 1.4 nM
- IC50 (HFC): 8.4 nM
- IC50 ([1]; 144 h): 270 nM

Compound: COC(=O)c1ccc(NC(=O)[C@H](Cc2c[nH]c3ccccc23)NC(=O)C(CC(=O)NO)CC(C)C)cc1 (single isomer, unassigned) [Compound 3, N-(4-methyl-2-(N"-hydroxycarbamoyl)methylpentanoyl)-L-tryptophan-N'-(4-methoxycarbonylphenyl)carboxamide]
- IC50 [1]: 50 nM

Compound: COC(=O)c1ccc(NC(=O)[C@H](Cc2c[nH]c3ccccc23)NC(=O)C(CC(=O)NO)CC(C)C)cc1 (single isomer, unassigned) [Compound 4, N-(4-methyl-2-(N"-hydroxycarbamoyl)methylpentanoyl)-L-tryptophan-N'-(4-methoxycarbonylphenyl)carboxamide]
- IC50 [1]: ≥ 5000 nM
